The subject of series [1] is MCF-7-derived mamospheres. Description: Formation of MCF-7-derived mamospheres (CSC tumorspheres). The format is cell-based. Particulars: for inhibition at 10 µM / inhibition at 1 µM / inhibition at 5 µM: Homo sapiens, MCF7, read-out: Inhibition of tumorsphere formation (%) MCF-7; for inhibition at 1 µM: @1 µM (footnote b); for Formation of tumorspheres (in words): MCF-7 mamospheres and HCT-116 colonospheres, noncytotoxic concentration; for inhibition at 5 µM: @5 µM (footnote d). Here is the method:
(§1) (BD Biosciences, Franklin Lakes, NJ, USA). All cells were maintained at 37 °C in a humidified incubator in an atmosphere of 5% CO2, and passaged every 2–3 days.
(§2) Additionally, they were cultured using RPMI media (Gibco/Life Technologies; Grand […]
(§3) Colonospheres, mamospheres and colony formation unit assays. 30.000 cells per well of MCF-7 cells (mamos pheres), HCT-116 cells (colonospheres) and CD34+ cells from patients (colony formation units) were seeded in serum free non- adherent medium or […]
(§4) MethoCult (Stem Cell). […]

In series [2] the test system is MCF-7. Put plainly: Cytotoxic effect in breast tumor cell line (MTT). To be noted: for viability at 10 µM / viability at 1 µM / viability at 5 µM: Homo sapiens; for viability at 10 µM: MCF7, read-out: Viability (%) MCF-7, @10 µM; for viability at 1 µM: MCF7, read-out: Viability (%) MCF-7, @1 µM (footnote b); for viability at 5 µM: MCF7, read-out: Viability (%) MCF-7, @5 µM (footnote d).
Experimental: (§5) The cytotoxic effect was determined in breast (MCF-7) and colon (HCT-116) tumor cell lines using MTT assays.
(§6) Cells were seeded at 3 × 10^4 cells/mL in 96-well plates. The test compound was diluted in PBS. […] Viability was evaluated by MTT or WST-1 and dose/response curves were performed.

Series [3] concerns HCT-116-derived colonospheres. Put plainly: Formation of HCT-116-derived colonospheres (CSC tumorspheres). Type of series: cell-based. Particulars: for inhibition at 1 µM: @1 µM (footnote b). The protocol: as §1, §2, §3, §4
For series [4], the system named is HCT-116. Description: Cytotoxic effect in colon tumor cell line (MTT). Particulars: for viability at 10 µM: HCT-116, read-out: Viability (%) HCT-116, @10 µM; for viability at 1 µM: HCT-116, read-out: Viability (%) HCT-116, @1 µM (footnote b).
Experimental: as §5, §6
The nature of series [5]: Viability of non-tumor fibroblast cell line. Type of series: cell-based. Particulars: human, IMR90 non-tumor fibroblasts; for viability at 48 h, 1 µM: @1 µM (footnote b). The protocol:
The test compound was diluted in PBS.
Viability (%) tum orsphere form ation (%)

Where [6] appears, read: Homo sapiens, HCT-116, @10 µM, read-out: Inhibition of tumorsphere formation (%) HCT-116.
Where [7] appears, read: Homo sapiens, HCT-116, read-out: Inhibition of tumorsphere formation (%) HCT-116.

As for `COc1ccc2c(c1)[C@H]1C(=O)N(CC3CC3)C[C@@H]1C(C)(C)O2` [9a], the inhibition at 10 µM in series [1] (@10 µM) and in series [3] (setting [6]) was 0% throughout. Also, the viability at 10 µM is 73 ± 5% in series [2] and 94 ± 2% in series [4] (Homo sapiens).

For the molecule `COc1ccc([C@H]2C(CNCC3CC3)=C[C@@H]3[C@H](c4ccccc4O[C@H]3c3ccc(OC)cc3)[C@@H]2N)cc1` [5b], the inhibition at 1 µM in series [1] and in series [3] (setting [7]) was 100% in each case. In series [1], the “Formation of tumorspheres (in words)” value is on record as “completely inhibit”. The viability at 1 µM in series [2] amounted to 87 ± 1%; in series [4] (Homo sapiens), 94 ± 6%. Further, in series [5], the viability at 48 h, 1 µM came out at 98 ± 2%. This molecule had a viability at 48 h, 5 µM in series [5] of 28 ± 7%.

Take `COc1ccc2c(c1)C1C(=O)N(CC3CC3)CC1C(C)(C)O2` (stereo not shown) [9b]: the inhibition at 10 µM in series [1] (@10 µM) and in series [3] (setting [6]) was 0% each time. For the same molecule, the viability at 10 µM is 65 ± 2% in series [2] and 90 ± 3% in series [4] (Homo sapiens).

With `COc1ccc2c(c1)[C@H]1CN(CC3CC3)C[C@@H]1C(C)(C)O2` [8a], the inhibition at 10 µM in series [1] (@10 µM) and in series [3] (setting [6]) was 0% each time. For the same molecule, the viability at 10 µM in series [2] was 65 ± 1%; in series [4] (Homo sapiens), 94 ± 6%.

For `COc1ccc([C@H]2CCNC[C@@H]2NCC2CC2)cc1` [3b], the inhibition at 10 µM in series [1] (@10 µM) and in series [3] (setting [6]) was 0% throughout. The viability at 10 µM in series [2] came out at 95 ± 4%; in series [4] (Homo sapiens) it was 94 ± 3%.

Regarding `COc1ccc(C2C(CNCC3CC3)=Cc3nccnc3N2C)cc1` (stereo not shown) [13a], the inhibition at 10 µM in series [1] (@10 µM) and in series [3] (setting [6]) was 0% each time. Moreover, the viability at 10 µM in series [4] (Homo sapiens) was determined as 85 ± 7%.

As for `COc1ccc([C@H]2C(CNCC3CC3)=C[C@@H]3[C@H](c4ccccc4OC3(C)C)[C@@H]2N)cc1` [6b], in series [1], the inhibition at 5 µM is 100% and the “Formation of tumorspheres (in words)” value is on record as “completely inhibit”. The viability at 5 µM in series [2] is 94 ± 5%. Besides, the viability at 48 h, 5 µM in series [5] turned out to be 57 ± 13%. Moreover, the inhibition at 1 µM in series [3] (setting [7]) stood at 100%. For the same molecule, the viability at 1 µM in series [4] (Homo sapiens) came to 78 ± 9%.

For the molecule `COc1ccc(C2CC(=O)N(CC3CC3)CC2N)cc1` (stereo not shown) [1b], the inhibition at 10 µM in series [1] (@10 µM) and in series [3] (setting [6]) was 0% each time. The viability at 10 µM in series [2] amounted to 80 ± 2%; in series [4] (Homo sapiens), 97 ± 2%.

As to `COc1ccc2c(c1)C1C(=NO)N(CC3CC3)CC1C(C)(C)O2` (stereo not shown) [7b], the inhibition at 10 µM in series [1] (@10 µM) and in series [3] (setting [6]) was 0% in each case. Besides, the viability at 10 µM in series [2] amounted to 96 ± 2%; in series [4] (Homo sapiens) it was 95 ± 2%.

On to `COc1ccc([C@H]2CCN(CC3CC3)C[C@@H]2N)cc1` [2b], for which the inhibition at 10 µM in series [1] (@10 µM) and in series [3] (setting [6]) was 0% in each case. The viability at 10 µM is 97 ± 3% in series [2] and 94 ± 3% in series [4] (Homo sapiens).

For `COc1ccc2c(c1)[C@@H](CN)[C@H](CNCC1CC1)C(C)(C)O2` [12a], the inhibition at 10 µM in series [1] (@10 µM) and in series [3] (setting [6]) was 0% each time. The values for the viability at 10 µM in series [2] and in series [4] (Homo sapiens) were 90 ± 2% and 90 ± 4%, respectively.

`COc1ccc([C@@H]2Cc3[nH]c4ccccc4c3[C@H](CCNCC3CC3)[C@H]2N)cc1` [4a, 4-{2-[(Cyclopropylmethyl)amino]ethyl}-2-(4-methoxyphenyl)-2,3,4,9-tetrahydro-1H-carbazol-3-amine]: in series [1], the inhibition at 1 µM came out at 0%. Further, the viability at 1 µM in series [2] stood at 92 ± 7%. In series [3] (Homo sapiens, HCT-116, @0.1 µM (footnote c), read-out: Inhibition of tumorsphere formation (%) HCT-116), the inhibition at 0.1 µM turned out to be 0%. In series [4] (Homo sapiens, HCT-116, read-out: Viability (%) HCT-116, @0.1 µM (footnote c)), the viability at 0.1 µM was 85 ± 2%.

Turning to `COc1ccc([C@@H]2CCNC[C@H]2NCC2CC2)cc1` [3a], the inhibition at 10 µM in series [1] (@10 µM) and in series [3] (setting [6]) was 0% throughout. Besides, the results for the viability at 10 µM in series [2] and in series [4] (Homo sapiens) were 98 ± 2% and 95 ± 1%, respectively.

Consider `COc1ccc2c(c1)[C@H](CN)[C@@H](CNCC1CC1)C(C)(C)O2` [12b], for which the inhibition at 10 µM in series [1] (@10 µM) and in series [3] (setting [6]) was 0% in each case. Further, the viability at 10 µM worked out at 73 ± 3% in series [2] and 92 ± 3% in series [4] (Homo sapiens).

Consider `COc1ccc2c(c1)[C@@H](CN)[C@H](C(=O)NCC1CC1)C(C)(C)O2` [11a], for which the inhibition at 10 µM in series [1] (@10 µM) and in series [3] (setting [6]) was 0% each time. For the same molecule, the viability at 10 µM in series [2] was 92 ± 2%; in series [4] (Homo sapiens) it was 94 ± 2%.

For `COc1ccc([C@H]2Oc3ccccc3[C@H]3[C@@H](N)[C@H](c4ccc(OC)cc4)C(CNCC4CC4)=C[C@@H]32)cc1` [5a], in series [1], the inhibition at 1 µM worked out at 100% and the “Formation of tumorspheres (in words)” value is reported as “completely inhibit”. Besides, in series [2], the viability at 1 µM stood at 99 ± 1%. For the same molecule, in series [5], the viability at 48 h, 1 µM is 83 ± 6% and the viability at 48 h, 5 µM worked out at 20 ± 5%. In addition, in series [3] (setting [7]), the inhibition at 1 µM was determined as 100%. Also, in series [4] (Homo sapiens), the viability at 1 µM came to 87 ± 1%.

With `COc1ccc2c(c1)[C@H](CN)[C@@H](C(=O)NCC1CC1)C(C)(C)O2` [11b], the inhibition at 10 µM in series [1] (@10 µM) and in series [3] (setting [6]) was 0% in each case. The viability at 10 µM was 99 ± 1% in series [2] and 94 ± 2% in series [4] (Homo sapiens).

Consider `COc1ccc([C@@H]2CC(=O)N(CC3CC3)C[C@H]2N)cc1` [1a], for which the inhibition at 10 µM in series [1] (@10 µM) and in series [3] (setting [6]) was 0% throughout. The viability at 10 µM in series [2] is 91 ± 7%; in series [4] (Homo sapiens), 70 ± 2%.

Regarding `COc1ccc2c(c1)[C@H]1C(=NO)N(CC3CC3)C[C@@H]1C(C)(C)O2` [7a], the inhibition at 10 µM in series [1] (@10 µM) and in series [3] (setting [6]) was 0% in each case. Further, the viability at 10 µM in series [2] came out at 98 ± 1%; in series [4] (Homo sapiens), 92 ± 1%.

Take `COc1ccc([C@@H]2C(CNCC3CC3)=C[C@H]3[C@@H](c4ccccc4OC3(C)C)[C@H]2N)cc1` [6a]: in series [1], the inhibition at 5 µM came to 100% and the “Formation of tumorspheres (in words)” value is “completely inhibit”. Further, the viability at 5 µM in series [2] came to 94 ± 11%. In series [5], this molecule returned a viability at 48 h, 1 µM of 95 ± 5% and a viability at 48 h, 5 µM of 53 ± 12%. In series [3] (setting [7]), the inhibition at 1 µM is 100%. For the same molecule, the viability at 1 µM in series [4] (Homo sapiens) worked out at 81 ± 6%.

For the molecule `COc1ccc2c(c1)C1CN(CC3CC3)CC1C(C)(C)O2` (stereo not shown) [8b], the inhibition at 10 µM in series [1] (@10 µM) and in series [3] (setting [6]) was 0% each time. The viability at 10 µM in series [2] was 98 ± 1%; in series [4] (Homo sapiens), 93 ± 2%.

`COc1ccc([C@@H]2Oc3ccccc3[C@H](CN)[C@H]2C(=O)NCC2CC2)cc1` [10b]: the inhibition at 10 µM in series [1] (@10 µM) and in series [3] (setting [6]) was 0% each time. Moreover, the figures for the viability at 10 µM in series [2] and in series [4] (Homo sapiens) were 94 ± 5% and 70 ± 1%, respectively.

Turning to `COc1ccc([C@@H]2CCN(CC3CC3)C[C@H]2N)cc1` [2a], the inhibition at 10 µM in series [1] (@10 µM) and in series [3] (setting [6]) was 0% in each case. For the same molecule, the viability at 10 µM in series [2] came to 96 ± 3%; in series [4] (Homo sapiens), 90 ± 1%.

Take `COc1ccc(C2C(CNCC3CC3)=Cc3nccnc3N2C)cc1` (stereo not shown) [13b]: the “Inhibition of tumorsphere formation (%) MCF-7” value in series [1] (@10 µM) was found to be 0%. In series [2] (@10 µM), the “Viability (%) MCF-7” value is on record as 89 ± 6%. Besides, the “Inhibition of tumorsphere formation (%) HCT-116” value in series [3] (@10 µM) is 0%. Further, the “Viability (%) HCT-116” value in series [4] (@10 µM) is 90 ± 3%.

The term inhibition denotes the change of the read-out against control, counted positive when it falls. As a reminder, the viability is a read-out of living cells in per cent, often relative to untreated cells.

The record behind these values is PMC11134387, “Cancer-Stem-Cell Phenotype-Guided Discovery of a Microbiota-Inspired Synthetic Compound Targeting NPM1 for Leukemia” (JACS Au, 2024).
